Reference: patent publication US6900021B1, “Microfluidic system and methods of use” (The University of Alberta, priority 1997, dated 2005)

Columns and labels:
[1] = test system: canine erythrocytes; test: Lysis of canine erythrocytes by SDS in the microchip; format: cell-based, dog
Method: A phosphate buffer, 40 mM each of NA2HPO4 and KH2PO4 (BDH analytical grade) was adjusted to pH 7.4 with either NaOH or HCl and used as an isotonic buffer for canine erythrocytes. (The plasma concentrations of […] in canine plasma are 94 and 6 mM. respectively. (8,9) Assuming a monoanion as the counterion gives as osmolarity of 200 mM, equal to that of the buffer prepared.) A hypotonic solvent, deionized water, was used to prepare yeast or E. coli cell suspensions. Sodium dodecyl sulfate (SDS, Serva, analytical grade) was prepared at 3 mM (0.1 wt %) in deionized water. Other chemicals were reagent grade and were used without further purification.
Red blood cells of a healthy dog were obtained from Heritage Medical Research Centre (Edmonton, AB, Canada). Blood samples were collected using EDTA as the anticoagulant. These were centrifuged for separation into various blood components. After removal of the plasma and buffy coat, the erythrocytes were isolated as a cell pellet. A citrate-phosphate-dextrose (CPD) solution, (9), used to store human whole blood for enhancement of the poststorage viability of red cells, (10), was adapted for handling and storing the canine cells by addition of KCl and NaCl as well. The solutions contained 2.5 mM dextrose, 1.6 mM sodium citrate, 0.28 mM citric acid, 0.15 mM Na2HPO4, 94 mM NaCl, and 6.0 mM KCl. An erythrocyte suspension of 5% hematocrit was used. The cells were washed several times with the isotonic phosphate buffer to remove the storage buffer, using a Sanyo MSE MicroCentaur centrifuge.
The visual cell lysis experiment was performed in the COPI device (FIG. 5A). The B reservoir, which contained erythrocytes and the S reservoir, containing 3 mM SDS, were both at +150 V, while the SW reservoir was at ground. The potential at BW was floating.
For the cell lysis experiment using PMT detection, the PCRD2 device (FIG. 5B) was used. Cells were introduced into the S reservoir to which 400 V was applied, versus ground on the SW reservoir. A 3 mM SDS solution was introduced into the B reservoir. […]

[2] = target: T1, P-selectin (Homo sapiens, UniProt P16109); test: Cell rolling assay with undiluted human blood, P-selectin coated device; format: cell-based; details: heparinated whole human blood; HCRIVc device
T1 sequence (P16109 42-830): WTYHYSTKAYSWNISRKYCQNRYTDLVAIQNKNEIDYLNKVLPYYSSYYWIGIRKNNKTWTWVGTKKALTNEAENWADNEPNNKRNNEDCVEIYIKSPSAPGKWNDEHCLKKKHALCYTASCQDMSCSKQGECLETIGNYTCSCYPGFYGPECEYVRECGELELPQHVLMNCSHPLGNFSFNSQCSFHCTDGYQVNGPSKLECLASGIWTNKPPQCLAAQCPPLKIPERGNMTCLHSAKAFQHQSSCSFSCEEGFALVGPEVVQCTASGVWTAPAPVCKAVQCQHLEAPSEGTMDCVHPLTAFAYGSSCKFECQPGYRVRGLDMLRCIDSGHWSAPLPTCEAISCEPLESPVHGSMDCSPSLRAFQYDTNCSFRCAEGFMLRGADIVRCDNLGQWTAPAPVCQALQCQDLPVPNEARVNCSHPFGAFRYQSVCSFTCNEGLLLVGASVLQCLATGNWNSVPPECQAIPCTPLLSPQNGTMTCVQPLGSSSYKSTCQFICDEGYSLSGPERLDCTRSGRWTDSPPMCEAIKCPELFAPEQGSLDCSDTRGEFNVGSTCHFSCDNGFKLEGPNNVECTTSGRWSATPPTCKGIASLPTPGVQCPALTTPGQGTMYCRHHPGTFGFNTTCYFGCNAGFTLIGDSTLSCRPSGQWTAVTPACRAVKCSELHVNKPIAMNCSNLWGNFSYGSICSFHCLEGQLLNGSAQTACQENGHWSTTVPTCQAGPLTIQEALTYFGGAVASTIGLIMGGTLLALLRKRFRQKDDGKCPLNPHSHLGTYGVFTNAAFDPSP
Method: (§1) This device was previously coated either P-selectin or E-selectin as described above. 50 μl heparinated whole human blood (1 mg/ml heparin was added to the blood) was introduced into the first reservoir of the “Y” shape device shown in FIG. 12. The human blood was moved from the reservoir into the channel by a syringe pump at optimum flow rate for the device (see Table II) and the main flow channel, about 1-2 cm from intersection of “Y”, was observed under the microscope for 15 minutes.
(§2) 50 μl of a mixture of inhibitor and heparinated blood was placed into the second reservoir and introduced into the channel for 3-10 minutes.

[3] = target: T2, E-selectin (Homo sapiens, UniProt P16581); test: Cell rolling assay with undiluted human blood, E-selectin coated device; format: cell-based; details: heparinated whole human blood; HCRIVc device
T2 sequence (P16581 22-610): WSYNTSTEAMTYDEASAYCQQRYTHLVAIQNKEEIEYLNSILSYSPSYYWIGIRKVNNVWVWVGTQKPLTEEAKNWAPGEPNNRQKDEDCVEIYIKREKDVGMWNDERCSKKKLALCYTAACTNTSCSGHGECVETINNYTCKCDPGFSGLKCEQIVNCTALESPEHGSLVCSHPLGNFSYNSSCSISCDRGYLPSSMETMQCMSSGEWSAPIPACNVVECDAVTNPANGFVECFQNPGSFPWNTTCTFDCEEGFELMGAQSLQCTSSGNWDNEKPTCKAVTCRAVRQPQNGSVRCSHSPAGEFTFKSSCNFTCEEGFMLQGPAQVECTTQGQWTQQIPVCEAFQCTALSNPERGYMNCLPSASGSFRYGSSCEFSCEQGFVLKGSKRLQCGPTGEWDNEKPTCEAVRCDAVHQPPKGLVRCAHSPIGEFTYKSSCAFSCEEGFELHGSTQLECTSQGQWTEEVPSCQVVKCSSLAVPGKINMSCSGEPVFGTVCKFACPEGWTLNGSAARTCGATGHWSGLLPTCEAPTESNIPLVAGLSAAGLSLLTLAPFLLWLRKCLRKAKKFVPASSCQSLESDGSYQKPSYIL
Method: as §1, §2

[4] = target: T1, P-selectin; test: Cell rolling of neutrophils on P-selectin coated microchip; format: cell-based; details: concentration not given
Method: In preparation for cell rolling, the channels were coated with the desired selectin by methods similar to those set forth in Example VII.
To study cell rolling, two reservoirs leading to one channel were filled with cells. The contents of both the first and second reservoir (cells only) were drawn into the channel and cell rolling was observed.
The HCRIVa microchip was coated with 20 μg/ml P-selectin by methods similar to that described in Example VII and incubated for two hours. Isolated human neutrophils were moved through the rolling microchip with a flow rate of 10 μl/min. (approx. 800/cm shear rate=40 dynes/cm^2 shear force).

[5] = target: T2, E-selectin; test: Cell rolling of neutrophils on E-selectin coated microchip; format: cell-based; details: concentration not given
[6] = test system: human lymphocytes; test: Calcium influx assay with lymphocyte inhibitor; format: cell-based
Method: The microfluidic device and human lymphocytes were prepared as described in Example III.
With reference to FIG. 8, 100 μM of verapamil, an inhibitor, was introduced into channel #1; buffer was introduced into channel #2; leukocytes were introduced into channel #3; and calcium activator A23187 was introduced into channel #4.
The device was run as described in Example III above. Verapamil was introduced to the lymphocytes at point “A” intersection of the device (FIG. 8). The lymphocytes were incubated with verapamil for four minutes while transported through the main channel to the mixing point “B”.

[7] = test system: human lymphocytes; test: Calcium influx assay (stop flow, Fluo-3 AM fluorescence) with activator; format: cell-based; details: single lymphocyte
Description: Calcium influx is involved in major cell functions and responses of lymphocytes. In this assay, the calcium ion influx into the lymphocytes is induced by a calcium releasing agent, calcimycin (A23187, calcium ionophore). The rise in the concentration of free intracellular calcium ions results in an increase in fluorescent signal from cells pretreated with a fluorescing agent. The kinetic results of calcium influx may be studied with the stop flow method in the microfluidic device.
There are several steps in the study of the process of calcium influx. First, an activator, calcimycin (A23187 calcium ionophore) and the calcium ion complex must adsorb on the cell surface. Second, the complex has to diffuse through the cell membrane. Third, once inside the cytosol, dissociation between the A23187 and calcium ion has to take place. Finally, a fluorescing agent, FLUO-3 AM, complexes with the released calcium and produces emitted light that can be detected (fluorescence).
For measurement of calcium influx, a calcium-specific fluorophore, Fluo-3 AM (Molecular Proves), was preloaded into purified human lymphocytes as acetoxymethyl (AM) ester. […]
A fluorescence microscope equipped with a 25× objective and a CCD camera was positioned over the detection zone, point “B” in FIG. 8, allowed the observation of cells as they passed the detection zone. […]

Molecule: CCCCCCCCCCCCOS(=O)(=O)[O-].[Na+] [SDS, Sodium dodecyl sulfate]
- scattered light signal from the cells ([1]; 3 mM SDS in deionized water, PMT 2.5 mm downstream of mixing point, PCRD2 device): signal dropped
- total time elapsed for lysis of the marked cells (three frames) ([1]; 3 mM SDS, COPI device, double-T region, 130 V/cm): 0.3 s
- lysis of erythrocytes (hemolysis) in a flowing stream ([1]; anionic detergent mixed with cell stream at an intersection): lysed cells sufficiently rapidly

Molecule: Fucoidine
- inhibition of leukocyte rolling in whole blood in the presence of P-selectin [2]: took a longer time to inhibit rolling
- inhibition of leukocyte rolling in whole blood in the presence of E-selectin [3]: took a longer time to inhibit rolling
- inhibition of rolling of the neutrophils in the presence of P-selectin [4]: took a longer time to inhibit rolling
- inhibition of rolling of the neutrophils in the presence of E-selectin [5]: took a longer time to inhibit rolling

Molecule: COc1ccc(CCN(C)CCCC(C#N)(c2ccc(OC)c(OC)c2)C(C)C)cc1OC (centres unmarked) [verapamil]
- activation in calcium flux ([6]; 100 μM, incubated four minutes, activator A23187): significant reduction
- fluorescence of inhibitor treated lymphocyte after activation with A23187 ([6]; 100 μM, incubated four minutes, twenty individual lymphocytes): no fluorescence
- inhibition of calcium influx ([6]; lymphocytes incubated for 30 seconds in the mixing channel): no inhibition

Molecule: CNc1ccc2oc(C[C@H]3O[C@@]4(CC[C@H]3C)O[C@H]([C@H](C)C(=O)c3ccc[nH]3)[C@H](C)C[C@H]4C)nc2c1C(=O)O [A23187, calcimycin]
- time at the mixing point until lymphocyte showed fluorescence caused by calcium influx [7]: 4 s
